Laboratory results from patent US6906078B2, “Method of using (H+/K+) ATPase inhibitors as antiviral agents” (Pharmacia Corporation, priority 1994, dated 2005).
Where two headings read alike, the source gives them in different places.

Columns and labels:
HCMV (strain AD169) = experiment: Antiviral assay: HCMV antigen ELISA in infected human foreskin fibroblasts (MRHF); type: cell-based, human cytomegalovirus; settings: Human betaherpesvirus 5, Fibroblast; MRHF cells, HCMV AD169, moi 0.2, 96 hours; read-out: HCMV cell EC50
From the text: These complimentary assays tested the ability of a compound to inhibit the production of new virus and the toxicity of the compound to the host cells. It was important that both assays be performed simultaneously in order to compare the results directly since, toxicity may indirectly reduce viral yield.
Viral yield was estimated by measuring the amount of a viral antigen produced 4 days post infection with a monoclonal antibody to an abundant “immediate early” viral protein. An enzyme-linked (horseradish peroxidase) secondary antibody specific to the primary (mouse) antibody was used to measure the amount of viral antigen. Test compounds were diluted to 2-times the desired final concentration in DMEM+5% FBS. One hundred microliters of this solution was placed in each well of a 96-well plate. This was performed once for the antiviral 96-well plate and again for a cytotoxicity plate. Two controls were also included for both plates; a no drug control and a ganciclovir control. Ganciclovir was included because it has known antiviral activity for HCMV. All cells were prepared by harvesting human foreskin fibroblasts, MRHF, with trypsin and re-suspending at a concentration of 5×10^5 cells per ml in DMEM. Infected cells were prepared by infecting these with HCMV (strain AD169) at a multiplicity of infection=0.2. One hundred microliters of uninfected cells (5×10^4 cells) were added to the appropriate wells of the cytotoxicity plate. In a similar manner 100 μl of infected cells (5×10^4 cells) were added to the appropriate wells of the antiviral plate. Additionally, uninfected cells not treated with test compound were included as controls on the antiviral plate. Plates were incubated for 96 hours at 37° C. in 5% CO2 atmosphere and processed to measure the amount of viral antigen and toxicity.
The following was performed on the antiviral plate only. Media was removed and cells were fixed with 1:1 acetone:methanol for 15 minutes at −20° C. Fixative was removed and cells were washed once with PBS containing 0.05% Tween20. In order to block nonspecific binding of antibodies each well was incubated with PBS containing 3% (w/v) bovine serum albumin (BSA) for 1 hour at 22° C. The blocking solution was removed and the cells were washed once with PBS containing 0.05% Tween20 before incubating with 1:100 dilution of primary antibody in PBS containing 3% BSA for 2 hours at 22° C. The primary antibody was a monoclonal antibody (mouse source) specific to the immediate early nuclear antigen of HCMV and was commercially available (Dupont). The 10 antibody solution was removed and the plate was rinsed 5 times with PBS containing 1% (v/v) Triton X-100 (PBST) before incubating with secondary antibody diluted 1:1000 in PBS containing 3% BSA for 2 hours at 22° C. The secondary antibody (goat source) recognized the murine-specific determinants of the 1° antibody and was covalently linked to horseradish peroxidase (Sigma). The plate was rinsed 5 times with PBST and once with deionized water before adding 100 μl TMB substrate solution and incubating 30 minutes at 22° C. The reaction was stopped by adding 100 μL of phosphoric acid and the OD at 450 nm recorded. TMB (3,3′,5,5′ tetramethylbenzidine) was the substrate for the horseradish peroxidase linked to the 2° antibody. […] Antiviral activity was calculated by comparing the amount of viral antigen produced in drug treated wells with that produced in wells absent of drug.

gastric acid secretion [1] = experiment: Inhibition of gastric acid secretion in meal-stimulated Pavlov pouch dog; type: in vivo, beagle dogs; settings: 3 mg/kg, four-hour period
Protocol: Adult female beagle dogs weighing 6 to 10 kilograms were obtained from Laboratory Research Enterprises (Kalamazoo, Mich.) or from Hazelton Research Animals (Cumberland, Va.). Surgical implantation of a Thomas-type gastric cannula into an innervated Pavlov pouch of each dog was performed by the method reported by L. Burrows et al., J. Surgical Res., 4, 147 (1964). After recovery from surgery, the dogs were trained to stand quietly, fully conscious, in Pavlov-type dog restraining slings. All dogs were deprived of food, but not water, for 24 hours prior to each assay. Basal acid secretion was measured by collecting from the cannulas for 30 minutes before dosing with a test compound. Solutions of the test compounds in iso-osmotic phosphate buffer (pH 7.4) were given either intravenously or directly into the Pavlov pouch. After 30 minutes the pouch was drained. The dogs were then fed 320 grams of dog food and gastric acid secretions were collected each half hour for four hours. Controls were determined in the same way except that only food (i.e., no test compound) was administered.
Data were analyzed for three different variables: volume of gastric juice, acid concentration, and total acid output. Percent inhibition for the four-hour experimental period was determined for each parameter by comparison with 3 to 4 controls. Estimates of ED50 were determined from dose response curves.

gastric acid secretion [2] = experiment: Inhibition of gastric acid secretion in gastric fistula beagle dogs (histamine-stimulated); type: in vivo; settings: Canis lupus familiaris, 4 h, histamine-stimulated, four-hour period, read-out: Gastric-Fistula Beagle % Inhibition (3 mg/kg dose)
Outline: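 Conscious, 18 h-fasted female beagles with gastric (or duodenal) cannulas received compound i.v., i.g. or i.d. after a 30-min basal period, then 4 h i.v. histamine dihydrochloride at 15 mcg/kg/h. Gastric volume, acid concentration and total acid output collected every 30 min; percent inhibition versus controls, ED50 from dose-response curves.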

| SMILES | EC50 (HCMV (strain AD169)) | melting point | Pavlov-Pouch Dog % Inhibition (dose (mg/kg)) (gastric acid secretion [1]) | inhibition in vivo at 3 mg/kg (gastric acid secretion [2]; iv, 3 mg/kg i.v.) | inhibition in vivo at 3 mg/kg (gastric acid secretion [2]; intraduodenal, 3 mg/kg i.d.) |
| --- | --- | --- | --- | --- | --- |
| Nc1ccccc1C[S+]([O-])c1nc2cc(Cl)ccc2[nH]1 (stereo not shown) [Example 43, 2-[[(5-Chloro-1H-benzimidazol-2-yl)sulfinyl]-methyl]benzenamine] | 23 µM | 165 to 166 °C | – | – | – |
| COc1ccc2[nH]c([S+]([O-])Cc3ncc(C)c(OC)c3C)nc2c1 (stereo not shown) [omeprazole, reference compound] | 93 µM | – | – | – | – |
| COc1ccc(N)c(C[S+]([O-])c2nc3ccccc3[nH]2)c1 (stereo not shown) [Example 20, 2-[(1H-Benzimidazol-2-ylsulfinyl)methyl]-4-methoxybenzenamine] | – | 152 to 153 °C | 22 (3 mg/kg) % | 37% | – |
| Cc1ccc2[nH]c([S+]([O-])Cc3ccccc3N)nc2c1 (stereo not shown) [Example 41, 2-[[(5-Methyl-1H-benzimidazol-2-yl)sulfinyl]-methyl]benzenamine] | 59 µM | 170 to 171 °C | – | – | – |
| Cc1ccc(C[S+]([O-])c2nc3ccccc3[nH]2)c(N)c1C (stereo not shown) [Example 53, 2-[(1H-Benzimidazol-2-ylsulfinyl)methyl]-5,6-dimethylbenzenamine ¼ hydrate] | 13 µM | – | – | – | 79% |
| COc1ccc2[nH]c([S+]([O-])Cc3c(N)cc(C)c(OC)c3C)nc2c1 (stereo not shown) [Example 78, 2-[[(5-Methoxy-1H-benzimidazol-2-yl)sulfinyl]methyl]-4-methoxy-3,5-dimethylbenzenamine] | 22 µM | 149 to 155 °C | – | – | 31% |
